These results are taken from patent US20070249501A1 (priority 2004, published 2007).

Data set [1] concerns microbial populations in soil. It is filed as cell-based.
In data set [2] the test system is tomato (cv. 870) seedlings. Conditions: in vivo.
Data set [3] concerns root-knot nematode Meloidogyne javanica. The following applies: in vivo.
The next data set concerns Sclerotium rolfsii. Format: cell-based.
The subject of data set [4] is Fusarium oxysporum f. sp. radicis-lycopersici (FORL). It is filed as cell-based.

Consider tetrabromoethane [TBE], for which, in data set [1], the “reduction of microbial populations in soil” value (“reduction” below) is “none of the tested industrial biocides was capable of significantly reducing microbial populations in soil”.

Regarding `OCC(CBr)(CBr)CBr` [TBNPA, tribromoneopentyl alcohol], in data set [1], the “reduction” value is “none of the tested industrial biocides was capable of significantly reducing microbial populations in soil”.

On to `O=S([O-])S(=O)(=O)[O-].[K+].[K+]` [PMS, potassium metabisulfite], for which, in data set [2], the “root system development in treated soil” value was “substantially stunted root system”. In addition, the “reduction” value in data set [1] is given as “none of the tested industrial biocides was capable of significantly reducing microbial populations in soil”.

Regarding tetramethylammonium bromide [TMBr], the “reduction” value in data set [1] is reported as “none of the tested industrial biocides was capable of significantly reducing microbial populations in soil”.

For the molecule `ClC=CCCl` [1,3-dichloropropene], in data set [3], the “galling index of tomato plant roots” value is reported as “zero”.

For `CN1CSC(=S)N(C)C1` [Dazomet, dazomet], the “effect on population densities of FORL, Verticillium dahliae, Macrophomina phaseolina and Streptomyces spp. in soil (FIG. 3)” value in data set [1] is reported as “the effect of bromopicrin was similar to the effect of the commercial fumigant Basamid”.

In the case of `COc1ccc(C=CC(=O)O)cc1` [MCA, methoxy cinnamic acid], the “reduction” value in data set [1] is reported as “none of the tested industrial biocides was capable of significantly reducing microbial populations in soil”.

For the molecule `C[N+](=O)[O-]` [nitromethane], in the data set with Sclerotium rolfsii, the “control of S. rolfosii in soil (percent survival, FIG. 6)” value was “no effect in controlling pests”. Moreover, the “control of FORL in soil (percent survival, FIG. 6)” value in data set [4] is reported as “no effect in controlling pests”.

For `OCC(CO)(CBr)CBr` [DBNPG, dibromoneopentyl glycol], the “reduction” value in data set [1] is on record as “none of the tested industrial biocides was capable of significantly reducing microbial populations in soil”.

As to `O=[N+]([O-])CBr` [monobromonitromethane, bromonitromethane], the “control of S. rolfosii in soil (percent survival, FIG. 6)” value with Sclerotium rolfsii is listed as “effective in controlling soil-borne fungi”. In addition, the “control of FORL in soil (percent survival, FIG. 6)” value in data set [4] is recorded as “effective in controlling soil-borne fungi”.

For the molecule `ClCCBr` [BCE, ethylene bromochloride], the “root system development in treated soil” value in data set [2] is given as “substantially stunted root system”. For the same molecule, the “reduction” value in data set [1] was “none of the tested industrial biocides was capable of significantly reducing microbial populations in soil”.

`BrC(Br)Br` [BF, bromoform]: the “reduction” value in data set [1] was “none of the tested industrial biocides was capable of significantly reducing microbial populations in soil”.
